SMILES strings stand for the structures. Some results are limits rather than exact numbers.

In general, IC50 refers to the concentration needed to halve the response being measured. A higher IC50 goes with a need for much substance.

The target of one assay is MTH1 (Homo sapiens, UniProt P36639). Kind of assay: MTH1 enzymatic assay and IC50 value determination (malachite green). The assay is classed as biochemical. Particulars: MTH1 4.8 nM, dGTP 100 μM, 15 minutes at 22° C.; group: between 2 μM and 10 μM. The method in brief:
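Malachite green detection of Pi after coupling dGTP hydrolysis to excess E. coli pyrophosphatase; 4.8 nM MTH1, 100 μM dGTP in Tris-acetate buffer with Mg2+ and DTT, 1% DMSO, 15 min at 22 °C. 12-point 1:3 compound series; absorbance at 630 nm; IC50 by four-parameter nonlinear regression.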
Regarding `C[C@@H]1[C@H]2C[C@@H](C[C@H]1Nc1cc(-c3cccc(Cl)c3Cl)nc(N)n1)C2(C)C` [Example 299, 6-(2,3-dichlorophenyl)-4-N-[(1R,2R,3R,5S)-2,6,6-trimethylbicyclo[3.1.1]heptan-3-yl]pyrimidine-2,4-diamine], the IC50 fell in the range of 2000 to 10000 nM.
On to `COc1ccc(C(CNc2cc(-c3cccc(C)c3C)nc(N)n2)N2CCCC2)cc1` (centres unmarked) [Example 345, 6-(2,3-Dimethylphenyl)-4-N-[2-(4-methoxyphenyl)-2-(pyrrolidin-1-yl)ethyl]pyrimidine-2,4-diamine], for which the IC50 is 2000 to 10000 nM.

The same assay, now with this note: MTH1 4.8 nM, dGTP 100 μM, 15 minutes at 22° C.; group: less than 200 nM.
The compound `Nc1nc(NCCc2ccc(S(N)(=O)=O)cc2)cc(-c2cccc(Cl)c2Cl)n1` [Example 296, 4-(2-{[2-amino-6-(2,3-dichlorophenyl)pyrimidin-4-yl]amino}ethyl)benzene-1-sulfonamide] displayed a concentration for half-maximal inhibition (IC50) of less than 200 nM.
The compound `CC1CCN(Cc2cccc(CNc3cc(-c4cccc(Cl)c4Cl)nc(N)n3)c2)CC1` [Example 300, 6-(2,3-Dichlorophenyl)-4-N-({3-[(4-methylpiperidin-1-yl)methyl]phenyl}methyl)-pyrimidine-2,4-diamine] yielded an IC50 of less than 200 nM.
Take `Nc1nc(NCCc2ccc(O)cc2)cc(-c2cccc(Cl)c2Cl)n1` [Example 301, 4-(2-{[2-Amino-6-(2,3-dichlorophenyl)pyrimidin-4-yl]amino}ethyl)phenol]: the half-inhibitory concentration (IC50) was less than 200 nM.
As for `Nc1nc(NC23CC4CC(CC2C4)C3)cc(-c2cccc(Cl)c2Cl)n1` [Example 304, 6-(2,3-Dichlorophenyl)-4-N-{tricyclo[3.3.1.0^3,7]nonan-3-yl}pyrimidine-2,4-diamine], the IC50 is less than 200 nM.
Same read-out and setting: the figure for `CNc1cc(-c2cccc(NC(=O)c3ncccc3O)c2)nc(N)n1` [Example 308, N-{3-[2-amino-6-(methylamino)pyrimidin-4-yl]phenyl}-3-hydroxypyridine-2-carboxamide] is less than 200 nM; for `CNc1cc(-c2cccc(NC(=O)/C=C/CN(C)C)c2)nc(N)n1` [Example 312, (2E)-N-{3-[2-Amino-6-(methylamino)pyrimidin-4-yl]phenyl}-4-(dimethylamino)but-2-enamide] it is less than 200 nM; for `C=CS(=O)(=O)Nc1cccc(-c2cc(NC)nc(N)n2)c1` [Example 313, N-{3-[2-amino-6-(methylamino)pyrimidin-4-yl]phenyl}ethene-1-sulfonamide] it is less than 200 nM.
On to `CNc1cc(-c2cccc(NC(=O)C(C)=O)c2)nc(N)n1` [Example 315, N-{3-[2-Amino-6-(methylamino)pyrimidin-4-yl]phenyl}-2-oxopropanamide], for which the half-maximal inhibitory concentration (IC50) was less than 200 nM.
In turn, `CNc1cc(-c2cccc(NC(=O)C(=O)c3ccccc3)c2)nc(N)n1` [Example 316, N-{3-[2-Amino-6-(methylamino)pyrimidin-4-yl]phenyl}-2-oxo-2-phenylacetamide] returned a concentration for half-maximal inhibition (IC50) of less than 200 nM.
The compound `C=CC(=O)Nc1ccc(-c2cc(NC)nc(N)n2)cc1` [Example 317, N-{4-[2-Amino-6-(methylamino)pyrimidin-4-yl]phenyl}prop-2-enamide] registered a half-inhibitory concentration (IC50) of less than 200 nM.
On the same count and under the same terms, next, `CNc1cc(-c2cccc(NC(=O)CO)c2)nc(N)n1` [Example 322, N-{3-[2-Amino-6-(methylamino)pyrimidin-4-yl]phenyl}-2-hydroxyacetamide]: less than 200 nM.
Regarding `CNc1cc(-c2cccc(NC(=O)C(O)c3ccc(Cl)cc3)c2)nc(N)n1` (centres unmarked) [Example 323, N-{3-[2-Amino-6-(methylamino)pyrimidin-4-yl]phenyl}-2-(4-chlorophenyl)-2-hydroxyacetamide], the concentration for half-maximal inhibition (IC50) is less than 200 nM.
In turn, `CNc1cc(-c2cccc(NC(=O)C(O)c3ccccc3)c2)nc(N)n1` (centres unmarked) [Example 324, N-{3-[2-Amino-6-(methylamino)pyrimidin-4-yl]phenyl}-2-hydroxy-2-phenylacetamide] returned a concentration for half-maximal inhibition (IC50) of less than 200 nM.
`CNc1cc(-c2cccc(NC(=O)c3ccccc3O)c2)nc(N)n1` [Example 326, N-{3-[2-Amino-6-(methylamino)pyrimidin-4-yl]phenyl}-2-hydroxybenzamide] came in with an IC50 of less than 200 nM.
On to `CNc1cc(-c2ccc(C(=O)C(F)(F)F)cc2)nc(N)n1` [Example 327, 1-{4-[2-Amino-6-(methylamino)pyrimidin-4-yl]phenyl}-2,2,2-trifluoroethan-1-one], for which the half-inhibitory concentration (IC50) is less than 200 nM.
Regarding `CNc1cc(-c2ccc(CN)cc2)nc(N)n1` [Example 329, 6-[4-(Aminomethyl)phenyl]-4-N-methylpyrimidine-2,4-diamine], the 50% inhibitory concentration (IC50) is less than 200 nM.
On the same count and under the same terms, the figure for `Cc1cccc(-c2cc(NCCc3ccc(S(N)(=O)=O)cc3)nc(N)n2)c1C` [Example 330, 4-(2-{[2-Amino-6-(2,3-dimethylphenyl)pyrimidin-4-yl]amino}ethyl)benzene-1-sulfonamide] is less than 200 nM; for `Cc1cccc(-c2cc(NCCc3ccc(S(C)(=O)=O)cc3)nc(N)n2)c1C` [Example 331, 6-(2,3-Dimethylphenyl)-4-N-[2-(4-methanesulfonylphenyl)ethyl]pyrimidine-2,4-diamine] it is less than 200 nM.
Regarding `Cc1cccc(-c2cc(NCCc3ccc(C#N)cc3)nc(N)n2)c1C` [Example 333, 4-(2-{[2-Amino-6-(2,3-dimethylphenyl)pyrimidin-4-yl]amino}ethyl)benzonitrile], the half-maximal inhibitory concentration (IC50) was less than 200 nM.
`Cc1cccc(-c2cc(NCCc3ccncc3)nc(N)n2)c1C` [Example 334, 6-(2,3-Dimethylphenyl)-4-N-[2-(pyridin-4-yl)ethyl]pyrimidine-2,4-diamine] yielded an IC50 of less than 200 nM.
The same measure, in the same setting: the figure for `Cc1cccc(-c2cc(NCCOc3ccc(C#N)cc3)nc(N)n2)c1C` [Example 335, 4-(2-{[2-Amino-6-(2,3-dimethylphenyl)pyrimidin-4-yl]amino}ethoxy)benzonitrile] is less than 200 nM.
In turn, `Cc1cccc(-c2cc(NCc3ccc(S(N)(=O)=O)cc3)nc(N)n2)c1C` [Example 336, 4-({[2-Amino-6-(2,3-dimethylphenyl)pyrimidin-4-yl]amino}methyl)benzene-1-sulfonamide] gave an IC50 of less than 200 nM.
For `Cc1cccc(-c2cc(NCC(C)c3ccc(Cl)cc3)nc(N)n2)c1C` (centres unmarked) [Example 343, 4-N-[2-(4-Chlorophenyl)propyl]-6-(2,3-dimethylphenyl)pyrimidine-2,4-diamine], the IC50 was less than 200 nM.
The compound `Cc1cccc(-c2cc(NCc3ccc(N(C)C)cc3)nc(N)n2)c1C` [Example 346, 4-N-{[4-(Dimethylamino)phenyl]methyl}-6-(2,3-dimethylphenyl)pyrimidine-2,4-diamine] returned a 50% inhibitory concentration (IC50) of less than 200 nM.
As to `Cc1cccc(-c2cc(NCc3cnn(-c4ccc(F)cc4)c3)nc(N)n2)c1C` [Example 348, 6-(2,3-Dimethylphenyl)-4-N-{[1-(4-fluorophenyl)-1H-pyrazol-4-yl]methyl}pyrimidine-2,4-diamine], the IC50 is less than 200 nM.
Turning to `Cc1cccc(-c2cc(NCCc3n[nH]c(-c4ccncc4)n3)nc(N)n2)c1C` [Example 349, 6-(2,3-dimethylphenyl)-4-N-{2-[5-(pyridin-4-yl)-1H-1,2,4-triazol-3-yl]ethyl}pyrimidine-2,4-diamine], the IC50 is less than 200 nM.
The compound `Cc1cccc(-c2cc(NCC3CCCN(c4ncccn4)C3)nc(N)n2)c1C` (centres unmarked) [Example 350, 6-(2,3-Dimethylphenyl)-4-N-{[1-(pyrimidin-2-yl)piperidin-3-yl]methyl}pyrimidine-2,4-diamine] displayed an IC50 of less than 200 nM.
